Legend:
[1] = Viscosity of formulation components; assay type: physicochemical; settings: neat component as listed in formulation tables
[2] = Intranasal versus intravenous pharmacokinetics in New Zealand White rabbits; settings: 5 mg/mL in mPEG 350, 50 μL into each nasal cavity
Protocol: In this Example, 10 mg lorazepam is dissolved in 2 mL of mPEG 350 using ultrasound to obtain a solution containing 5 mg/mL of lorazepam. 50 μL of the resulting composition is administered into each nasal cavity of male New Zealand White rabbits held in a supine position during, and then one minute after application. An Eppendorf pipette is used for each application. After administration, blood samples then are harvested from a marginal ear vein at 0, 2, 5, 10, 15, 30 and 60 minutes, and the lorazepam concentration determined by high performance liquid chromatography (HPLC). The pharmacokinetics of lorazepam delivery via intranasal administration can then be compared with the pharmacokinetics of lorazepam delivery by intravenous administration.
In this Example, 10 mg of midazolam is dissolved in 2 mL of mPEG 350 using ultrasound to obtain a solution containing 5 mg/mL midazolam. 50 μL of the resulting composition is then administered into each nasal cavity of male New Zealand White rabbits, held in a supine position during, and then one minute after application. After administration, blood samples then are harvested from a marginal ear vein at 0, 2, 5, 10, 15, 30 and 60 minutes, and the midazolam concentration determined by HPLC. […]

[3] = after nasal administration, adults; cited from earlier work
[4] = nasal gel, carbopol in PEG 400, rats; cited from earlier work

Compound | Viscosity (cP) of component [1] | Pharmacokinetics of intranasal versus intravenous administration [2] | further results
CC(O)CO (stereo not drawn) [Propylene glycol] | 40 cP | – | –
O [Water] | 1 cP | – | –
O=C1Nc2ccc(Cl)cc2C(c2ccccc2Cl)=NC1O (stereo not drawn) [lorazepam] | – | comparable to those of the intravenously administered lorazepam | Time to peak concentration [3]: 2.3 h
Cc1ncc2n1-c1ccc(Cl)cc1C(c1ccccc1F)=NC2 [midazolam] | – | comparable to those of the intravenously administered midazolam | –
COC(=O)C1=C(C)NC(C)=C(C(=O)OC)C1c1ccccc1[N+](=O)[O-] [nifedipine] | – | – | Time to peak plasma concentration [4]: 30 min

Reference: US10052333B2, “Methods and systems for the delivery of a therapeutic agent” (HANANJA EHF, priority 2007, dated 2018)
